Data reported in US4698338A, “7[2-(2-aminothiazol-4-yl)-2-benzyloximino]acetamido-3[4-al kyl-5-oxo-6-hydroxy-3,4-dihydro-1,2,4-triazin-3-yl]thiomethyl cephalosporins” (Eli Lilly and Company, priority 1986, dated 1987).
In brackets after ≈: the same amount, converted by molar mass. Like-named read-outs stand apart in the source and are kept apart here.

Key:
Assay in all cases: standard agar dilution in vitro test
Assay type in all cases: cell-based
[1] = tested on: Acinetobacter calcoaceticus AC12; conditions: read-out: Minimum Inhibitory Concentration
Text: (§1) The antibacterial activity of the compounds of the formula 1 is illustrated by the data presented in Table 2 for two such compounds. The data presented are the minimum inhibitory concentrations (μg/ml) against representative pathogens obtained in the standard agar dilution in vitro test.

[2] = tested on: Citrobacter freundii CF17; conditions: read-out: Minimum Inhibitory Concentration
Text: as §1

[3] = tested on: Enterobacter aerogenes C32; conditions: Klebsiella aerogenes, read-out: Minimum Inhibitory Concentration
Text: as §1

[4] = tested on: Enterobacter aerogenes EB17; conditions: Klebsiella aerogenes, read-out: Minimum Inhibitory Concentration
Text: as §1

[5] = tested on: Enterobacter cloacae 265A; conditions: read-out: Minimum Inhibitory Concentration
Text: as §1

Enterobacter cloacae EB5 = conditions: read-out: Minimum Inhibitory Concentration
Text: as §1

Escherichia coli EC14 = tested on: Escherichia coli EC14
Text: as §1

Escherichia coli N10 = conditions: read-out: Minimum Inhibitory Concentration
Text: as §1

Escherichia coli TEM = conditions: read-out: Minimum Inhibitory Concentration
Text: as §1

[6] = tested on: Haemophilus influenzae C.L.; conditions: read-out: Minimum Inhibitory Concentration
Text: as §1

[7] = tested on: Klebsiella pneumoniae KAE; conditions: read-out: Minimum Inhibitory Concentration
Text: as §1

[8] = tested on: Klebsiella pneumoniae X26; conditions: read-out: Minimum Inhibitory Concentration
Text: as §1

[9] = tested on: Klebsiella pneumoniae X68
Text: as §1

Proteus inconstans PR33 = conditions: Providencia alcalifaciens
Text: as §1

Proteus morganii PR15 = conditions: Morganella morganii, read-out: Minimum Inhibitory Concentration
Text: as §1

Proteus rettgeri C24 = conditions: Providencia rettgeri
Text: as §1

[10] = tested on: Pseudomonas aeruginosa PS18; conditions: read-out: Minimum Inhibitory Concentration
Text: as §1

[11] = tested on: Pseudomonas aeruginosa PS72; conditions: read-out: Minimum Inhibitory Concentration
Text: as §1

[12] = tested on: Pseudomonas aeruginosa X239; conditions: read-out: Minimum Inhibitory Concentration
Text: as §1

[13] = tested on: Pseudomonas aeruginosa X528; conditions: read-out: Minimum Inhibitory Concentration
Text: as §1

Salmonella typhi 1335 = conditions: Salmonella enterica, read-out: Minimum Inhibitory Concentration
Text: as §1

Salmonella typhi X514 = conditions: Salmonella enterica, read-out: Minimum Inhibitory Concentration
Text: as §1

Serratia marcescens SE3 = conditions: read-out: Minimum Inhibitory Concentration
Text: as §1

Serratia marcescens X99 = conditions: read-out: Minimum Inhibitory Concentration
Text: as §1

Shigella sonnei N9 = conditions: read-out: Minimum Inhibitory Concentration
Text: as §1

[14] = tested on: Staphylococcus aureus 513E; conditions: read-out: Minimum Inhibitory Concentration
Text: as §1

[15] = tested on: Staphylococcus aureus V41; conditions: read-out: Minimum Inhibitory Concentration
Text: as §1

[16] = tested on: Staphylococcus aureus X1.1; conditions: read-out: Minimum Inhibitory Concentration
Text: as §1

[17] = tested on: Staphylococcus aureus X400; conditions: read-out: Minimum Inhibitory Concentration
Text: as §1

[18] = tested on: Staphylococcus epidermidis 222; conditions: read-out: Minimum Inhibitory Concentration
Text: as §1

[19] = tested on: Staphylococcus epidermidis EPi1; conditions: read-out: Minimum Inhibitory Concentration
Text: as §1

[20] = tested on: Streptococcus Group D 2041; conditions: GROUPD2041, read-out: Minimum Inhibitory Concentration
Text: as §1

[21] = tested on: Streptococcus Group D X66; conditions: read-out: Minimum Inhibitory Concentration
Text: as §1

[22] = tested on: Streptococcus pneumoniae Park I; conditions: read-out: Minimum Inhibitory Concentration
Text: as §1

[23] = tested on: Streptococcus pyogenes C203; conditions: read-out: Minimum Inhibitory Concentration
Text: as §1

[24] = tested on: Haemophilus influenzae 76; conditions: read-out: Minimum Inhibitory Concentration
Text: as §1

SMILES	MIC [1]	MIC [2]	MIC [3]	MIC [4]	MIC [5]	MIC (Enterobacter cloacae EB5)	MIC (Escherichia coli N10)	MIC (Escherichia coli TEM)	MIC [6]	MIC [7]	MIC [8]	MIC (Proteus morganii PR15)	MIC [10]	MIC [11]	MIC [12]	MIC [13]	MIC (Salmonella typhi 1335)	MIC (Salmonella typhi X514)	MIC (Serratia marcescens SE3)	MIC (Serratia marcescens X99)	further results
Cn1nc(O)c(=O)nc1SCC1=C(C(=O)O)N2C(=O)[C@@H](NC(=O)/C(=N\OCc3ccc(O)cc3)c3csc(N)n3)[C@H]2SC1 [Test Compound A, 7β-[2-(2-Aminothiazol-4-yl)-2-(4-hydroxybenzyloxyimino)acetamido]-3-[(2,5-dihydro-6-hydroxy-2-methyl5-oxo-1,2,4-triazin-3-yl)thiomethyl]-3-cephem-4carboxylic acid]	16 µg/mL (≈ 24.7 µM)	4 µg/mL (≈ 6.19 µM)	0.25 µg/mL (≈ 0.387 µM)	0.5 µg/mL (≈ 0.773 µM)	128 µg/mL (≈ 198 µM)	0.5 µg/mL (≈ 0.773 µM)	0.25 µg/mL (≈ 0.387 µM)	0.03 µg/mL (≈ 0.0464 µM)	0.03 µg/mL (≈ 0.0464 µM)	16 µg/mL (≈ 24.7 µM)	0.06 µg/mL (≈ 0.0928 µM)	1 µg/mL (≈ 1.55 µM)	16 µg/mL (≈ 24.7 µM)	64 µg/mL (≈ 99 µM)	8 µg/mL (≈ 12.4 µM)	128 µg/mL (≈ 198 µM)	0.25 µg/mL (≈ 0.387 µM)	0.125 µg/mL (≈ 0.193 µM)	4 µg/mL (≈ 6.19 µM)	0.5 µg/mL (≈ 0.773 µM)	MIC (Escherichia coli EC14; Escherichia coli, EC14, read-out: Minimum Inhibitory Concentration): 0.125 µg/mL (≈ 0.193 µM); MIC ([9]; Klebsiella pneumoniae, X68, read-out: Minimum Inhibitory Concentration): 0.125 µg/mL (≈ 0.193 µM); MIC (Proteus inconstans PR33; PR33, read-out: Minimum Inhibitory Concentration): 0.125 µg/mL (≈ 0.193 µM); MIC (Proteus rettgeri C24; C24, read-out: Minimum Inhibitory Concentration): 0.125 µg/mL (≈ 0.193 µM); MIC (Shigella sonnei N9): 0.125 µg/mL (≈ 0.193 µM); MIC [14]: 8 µg/mL (≈ 12.4 µM); MIC [15]: 8 µg/mL (≈ 12.4 µM); MIC [16]: 1 µg/mL (≈ 1.55 µM); MIC [17]: 16 µg/mL (≈ 24.7 µM); MIC [18]: 2 µg/mL (≈ 3.09 µM); MIC [19]: 8 µg/mL (≈ 12.4 µM); MIC [20]: 1 µg/mL (≈ 1.55 µM); MIC [21]: 128 µg/mL (≈ 198 µM); MIC [22]: < 0.008 µg/mL; MIC [23]: < 0.008 µg/mL
Cn1nc(O)c(=O)nc1SCC1=C(C(=O)O)N2C(=O)[C@@H](NC(=O)/C(=N\OCc3cc(Cl)ccc3Cl)c3csc(N)n3)[C@H]2SC1 [Test Compound B, 7β-[2-(2-Aminothiazol-4-yl)-2-(2,5-dichlorobenzyloxyimino)acetamido]-3-[(2,5-dihydro-6-hydroxy-2-methyl-5-oxo-1,2,4-triazin-3-yl)thiomethyl]-3-cephem-4-carboxylic acid]	2 µg/mL (≈ 2.86 µM)	2 µg/mL (≈ 2.86 µM)	0.25 µg/mL (≈ 0.357 µM)	1 µg/mL (≈ 1.43 µM)	128 µg/mL (≈ 183 µM)	0.25 µg/mL (≈ 0.357 µM)	0.25 µg/mL (≈ 0.357 µM)	0.06 µg/mL (≈ 0.0858 µM)	0.03 µg/mL (≈ 0.0429 µM)	16 µg/mL (≈ 22.9 µM)	0.06 µg/mL (≈ 0.0858 µM)	0.5 µg/mL (≈ 0.715 µM)	32 µg/mL (≈ 45.7 µM)	16 µg/mL (≈ 22.9 µM)	8 µg/mL (≈ 11.4 µM)	64 µg/mL (≈ 91.5 µM)	1 µg/mL (≈ 1.43 µM)	0.25 µg/mL (≈ 0.357 µM)	2 µg/mL (≈ 2.86 µM)	1 µg/mL (≈ 1.43 µM)	MIC (Escherichia coli EC14; Escherichia coli EC14, agar dilution, read-out: Minimum Inhibitory Concentration): 0.25 µg/mL (≈ 0.357 µM); MIC [24]: 0.015 µg/mL (≈ 0.0214 µM); MIC ([9]; Klebsiella pneumoniae X68, agar dilution, read-out: Minimum Inhibitory Concentration): 0.25 µg/mL (≈ 0.357 µM); MIC (Proteus inconstans PR33; Proteus inconstans PR33, agar dilution, read-out: Minimum Inhibitory Concentration): 0.25 µg/mL (≈ 0.357 µM); MIC (Proteus rettgeri C24; Proteus rettgeri C24, agar dilution, read-out: Minimum Inhibitory Concentration): 0.5 µg/mL (≈ 0.715 µM); MIC (Shigella sonnei N9): 0.5 µg/mL (≈ 0.715 µM); MIC [14]: 4 µg/mL (≈ 5.72 µM); MIC [15]: 4 µg/mL (≈ 5.72 µM); MIC [16]: 0.5 µg/mL (≈ 0.715 µM); MIC [17]: 32 µg/mL (≈ 45.7 µM); MIC [18]: 0.5 µg/mL (≈ 0.715 µM); MIC [19]: 8 µg/mL (≈ 11.4 µM); MIC [20]: 0.5 µg/mL (≈ 0.715 µM); MIC [21]: > 128 µg/mL; MIC [22]: < 0.008 µg/mL; MIC [23]: < 0.008 µg/mL
